# Measured values reported in article PMC11188874, “HDAC6 Inhibition Releases HR23B to Activate Proteasomes, Expand the Tumor Immunopeptidome and Amplify T-cell Antimyeloma Activity” (Cancer Research Communications, 2024).
# Assays:
# [1] = system: proteasome ChT-like activity in RPMI-8226 cells; assay: Cell-based high-throughput screen of proteasome ChT-like activity (LLVY-R110); parameters: species or system human; settings: 3 µmol/L, 21 hours, then LLVY-R110 18 hours
# HDAC10 = biological target: T1, HDAC10 (Homo sapiens, UniProt Q969S8); assay: In vitro biochemical activity assay, HDAC10
# T1 construct: purchased Reaction Biology (Malvern, PA)
# T1 sequence (Q969S8 1-669): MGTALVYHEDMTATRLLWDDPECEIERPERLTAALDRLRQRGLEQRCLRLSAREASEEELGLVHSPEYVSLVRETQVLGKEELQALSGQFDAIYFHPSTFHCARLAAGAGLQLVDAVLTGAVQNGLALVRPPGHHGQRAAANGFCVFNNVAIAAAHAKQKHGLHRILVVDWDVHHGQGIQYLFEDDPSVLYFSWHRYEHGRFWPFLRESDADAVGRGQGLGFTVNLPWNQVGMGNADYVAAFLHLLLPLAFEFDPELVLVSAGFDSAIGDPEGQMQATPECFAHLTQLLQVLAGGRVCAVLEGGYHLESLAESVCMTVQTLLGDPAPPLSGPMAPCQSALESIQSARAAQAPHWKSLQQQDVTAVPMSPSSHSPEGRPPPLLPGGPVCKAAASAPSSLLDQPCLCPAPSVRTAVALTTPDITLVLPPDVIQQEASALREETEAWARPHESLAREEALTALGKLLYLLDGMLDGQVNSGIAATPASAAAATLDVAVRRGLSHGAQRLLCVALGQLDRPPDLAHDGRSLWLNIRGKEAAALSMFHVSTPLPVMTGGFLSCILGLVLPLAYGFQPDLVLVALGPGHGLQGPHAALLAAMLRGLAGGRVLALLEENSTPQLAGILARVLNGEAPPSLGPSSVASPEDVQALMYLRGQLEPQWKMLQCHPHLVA
# purified proteasomes = assay: Activity of proteasomes purified by conventional methods; assay type: biochemical
# E.G7-Ova cells [2] = assay: Quantitation of […]–MHC-I complex by flow cytometry; assay type: cell-based, mouse
# MMCLs = assay: pan-HLA-ABC presentation in MMCLs by flow cytometry; assay type: cell-based, human; settings: pan-HLA ABC antibody
# E.G7-Ova cells [3] = assay: Murine MHC-I immunopeptidome analysis by MS; assay type: cell-based, mouse; settings: 1 µmol/L, 72 hours
# 27 cancer cell lines [4] = assay: Proteasome activity in a panel of cancer cell lines (LLVY-R110); settings: 1 µmol/L, 72 hours
# 27 cancer cell lines [5] = settings: 1 µmol/L, 72 hours
# RPMI-8226 cells = assay: Myeloma MHC-I immunopeptidome analysis by MS; assay type: cell-based, human; settings: 1 µmol/L, 72 hours
# [6] = Cell viability, XTT assay; assay type: cell-based; settings: human, RPMI-8226 multiple myeloma cells, RPMI-8226 cells, XTT (Fig. 1C, 1D), read-out: cell viability maintained
# Method: Cell viability was determined using the XTT assay ([23]). Briefly, 50,000 cells were added to 96-well plates in a volume of 250 µL in RPMI media that lacked phenol red. Drugs were added at indicated concentrations and plates incubated under standard conditions for 72 hours. XTT sodium salt tetrazolium reagent (Gold Biotechnology, catalog no. X-200) was diluted in PBS (1 mg/mL) containing phenazine methosulfate (PMS, 7.5 µg/mL). Cells were incubated with the XTT+PMS reagent for 3 hours at 37°C and absorbance was measured at 450 nm using a Molecular Devices i3x Spectramax plate reader.
# [7] = system: proteasome ChT-like activity in MMCLs; assay: Proteasome ChT-like activity in cultured multiple myeloma cells (LLVY-R110); settings: for proteasome activity (in words): MM cells, 1 uM, 72 h (Fig. S14C, S14D)
# E.G7-Ova cells [8] = assay: B3Z T-cell hybridoma assay, annexin-V/propidium iodide; assay type: cell-based, mouse; settings: pretreatment 1 µmol/L 72 hours, E:T 2:1 (Fig. 2C)
compound,measurement,setting,value
COC[C@H](NC(=O)c1cnc(C)s1)C(=O)N[C@@H](COC)C(=O)N[C@@H](Cc1ccccc1)C(=O)[C@@]1(C)CO1 [ONX-0912],Fold-Decrease of proteasome ChT-like activity in the HTS,[1],4 fold
C1=C/COCc2cc(ccc2OCCN2CCCC2)Nc2nccc(n2)-c2cccc(c2)COC/1 [Pacritinib],Fold-Decrease of proteasome ChT-like activity in the HTS,[1],5 fold
Cn1cc(CNCC2CCN(c3ncc(C(=O)NO)cn3)CC2)c2ccccc21 [Quisinostat],IC50,"HDAC10; 10-dose, 3-fold serial dilution, Data 1-3 are triplicates, substrate Ac-spermidine-AMC",4.89 nM
CO[C@H]1C[C@@H]2CC[C@@H](C)[C@@](O)(O2)C(=O)C(=O)N2CCCC[C@H]2C(=O)O[C@H]([C@H](C)C[C@@H]2CC[C@@H](O)[C@H](OC)C2)CC(=O)[C@H](C)/C=C(\C)[C@@H](O)[C@@H](OC)C(=O)[C@H](C)C[C@H](C)/C=C/C=C/C=C/1C [Rapamycin],Fold-Increase of proteasome ChT-like activity in the HTS,[1],1.8 fold
Nc1nc2ccc(OC(F)(F)F)cc2s1 [Riluzole],direct effect on the activity of purified proteasomes,purified proteasomes,did not observe a direct effect
COc1ccc(C2CNC(=O)C2)cc1OC1CCCC1 (stereo not shown) [Rolipram],Fold-Increase of proteasome ChT-like activity in the HTS,[1],1.3 fold
COc1ccccc1CN(C)C(=O)Cn1c(CCC(=O)O)nc2c(Cl)cccc2c1=O [SGC-UBD253N],SIINFEKL–MHC-I complex presentation (in words),E.G7-Ova cells [2],not changed
same,pan-MHC-I presentation on MMCLs,MMCLs,did not increase
COc1ccccc1CNC(=O)Cn1c(CCC(=O)O)nc2c(Cl)cccc2c1=O [SGC-UBD253],SIINFEKL–MHC-I complex presentation (in words),E.G7-Ova cells [2],increased
same,pan-MHC-I presentation on MMCLs,MMCLs,increased pan-MHC-I presentation in a dose-dependent manner
CC[C@@H](C(=O)[C@@H](C)[C@@H](O)[C@H](C)[C@@H]1O[C@@H]([C@@H](CC)C(=O)O)CC[C@@H]1C)[C@H]1O[C@]2(C=C[C@@H](O)[C@]3(CC[C@@](C)([C@H]4CC[C@](O)(CC)[C@H](C)O4)O3)O2)[C@H](C)C[C@@H]1C [Salinomycin],Fold-Increase of proteasome ChT-like activity in the HTS,[1],2.0 fold
same,direct effect on the activity of purified proteasomes,purified proteasomes,did not observe a direct effect
C=C[C@](C)(O)CC[C@@H]1[C@@]2(C)CCCC(C)(C)[C@@H]2CC[C@@]1(C)O [Sclareol],Fold-Increase of proteasome ChT-like activity in the HTS,[1],1.4 fold
CN1CCc2c(c3ccccc3n2Cc2ccc(C(=O)NO)cc2)C1 [Tubastatin-A],peak area of SIINFEKL compared with untreated,E.G7-Ova cells [3],1.5 fold
same,Number of Cell Lines: Increased Proteasome Activity,27 cancer cell lines [4],17 cell lines
same,Number of Cell Lines: Both Increased,27 cancer cell lines [4]; proteasome activity and class I presentation,16 cell lines
same,Number of Cell Lines: Increased Class I Presentation,27 cancer cell lines [5],19 cell lines
same,effect on HDAC10 biochemical activity,HDAC10; at higher concentrations,inhibited
same,increase in presentation of the class I molecule–SIINFEKL complex,E.G7-Ova cells [2]; normalized to untreated (Fig. 2A),over 3 fold
same,global peak intensity of peptides,RPMI-8226 cells,approximately 2 fold
same,"viability at 16 h, 1 µmol/L",[6],≥ 75%
same,increase in proteasome activity,"[7]; RPMI-8226 cells, 1 µmol/L, 72 hours (Fig. 1B, 1D)",≥ 30%
same,number of CD8neg/annexin-V+/propidium iodide+ E.G7-Ova cells after coculture with B3Z cells,E.G7-Ova cells [8],significantly increased
COCCn1c2c([n+](Cc3cnccn3)c1C)C(=O)c1ccccc1C2=O [YM155],Fold-Decrease of proteasome ChT-like activity in the HTS,[1],11 fold
CN(C)CCc1c[nH]c2ccc(C[C@H]3COC(=O)N3)cc12 [Zolmitriptan],Fold-Decrease of proteasome ChT-like activity in the HTS,[1],4 fold
Cc1[nH]c2ccccc2c1CCNCc1ccc(/C=C/C(=O)NO)cc1 [panobinostat],proteasome activity (in words),[7],did not significantly increase
C/C=C1\NC(=O)[C@H]2CSSCC/C=C/[C@H](CC(=O)N[C@H](C(C)C)C(=O)N2)OC(=O)[C@H](C(C)C)NC1=O [romidepsin],proteasome activity (in words),[7],did not significantly increase
"O=C(CCCCCCC(=O)Nc1ccccc1)NO [vorinostat, suberoylanilide hydroxamic acid]",proteasome activity (in words),[7],did not significantly increase
